Source: ChEMBL document CHEMBL1201862, “PubChem BioAssay data set” (2004)
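48-hour exposure; five concentrations; linearly interpolated endpoints. GI50 = concentration required for 50% inhibition of growth.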 Active and inactive are the calls of the source. No stated cut-off is given here; in the data, active = GI50 up to about 1.1 µM and inactive = higher. Non-standard residues stand in square brackets, D forms with d. Residues, ends and D or L forms follow the SMILES beside them. ξ: configuration not given here. *: point of attachment. NMeF = CN[C@@H](Cc1ccccc1)C(=O)O; NMeV = CN[C@H](C(=O)O)C(C)C; ξNMeV = CNC(C(=O)O)C(C)C; Boc = CC(C)(C)OC(=O)*; OBn = c1ccc(CO*)cc1

Legend:
Test in all cases: DTP human tumour cell line panel, 48 h
MCF7 = test system: MCF7
CCRF-CEM = test system: CCRF-CEM
UACC-257 = test system: UACC-257
786-0 = test system: 786-0
M14 = test system: M14
LOX IMVI = test system: LOX IMVI
SW-620 = test system: SW-620
NCI-H226 = test system: NCI-H226
PC-3 = test system: PC-3
TK-10 = test system: TK-10
MDA-MB-435 = test system: MDA-MB-435
CAKI-1 = test system: CAKI-1
HT-29 = test system: HT-29
KM12 = test system: KM12
SNB-19 = test system: SNB-19
MDA-N = test system: MDA-N
RXF 393 = test system: RXF 393
COLO 205 = test system: COLO 205
SF-295 = test system: SF-295
Hs-578T = test system: Hs-578T

SMILES	GI50 (MCF7)	GI50 (CCRF-CEM)	GI50 (UACC-257)	GI50 (786-0)	GI50 (M14)	GI50 (LOX IMVI)	GI50 (SW-620)	GI50 (NCI-H226)	GI50 (PC-3)	GI50 (TK-10)	GI50 (MDA-MB-435)	GI50 (CAKI-1)	GI50 (HT-29)	GI50 (KM12)	GI50 (SNB-19)	GI50 (MDA-N)	GI50 (RXF 393)	GI50 (COLO 205)	GI50 (SF-295)	GI50 (Hs-578T)
Cc1cn([C@@H]2C[C@H]2CO)c(=O)[nH]c1=O	> 100 µM (inactive)	> 100 µM (inactive)	> 100 µM (inactive)	> 100 µM (inactive)	> 100 µM (inactive)	> 100 µM (inactive)	> 100 µM (inactive)	> 100 µM (inactive)	> 100 µM (inactive)	> 100 µM (inactive)	> 100 µM (inactive)	> 100 µM (inactive)	> 100 µM (inactive)	> 100 µM (inactive)	> 100 µM (inactive)	> 100 µM (inactive)	> 100 µM (inactive)	> 100 µM (inactive)	–	–
Cc1ccc(-c2cs/c(=N\c3c(C)n(C)n(-c4ccccc4)c3=O)n2CCO)cc1	72.9 µM (inactive)	> 100 µM (inactive)	53.8 µM (inactive)	–	> 100 µM (inactive)	–	–	> 100 µM (inactive)	> 100 µM (inactive)	> 100 µM (inactive)	> 100 µM (inactive)	> 100 µM (inactive)	–	> 100 µM (inactive)	> 100 µM (inactive)	> 100 µM (inactive)	> 100 µM (inactive)	–	> 100 µM (inactive)	–
CC(=O)Nc1ccc2c3c(cc(O)c2c1)N(C(=O)CCCC(=O)N1CC(CCl)c2c1cc(O)c1cc(NC(C)=O)ccc21)CC3CCl (stereo not drawn)	< 0.01 µM (active)	< 0.01 µM (active)	0.0114 µM (active)	< 0.01 µM (active)	< 0.01 µM (active)	< 0.01 µM (active)	0.0392 µM (active)	< 0.01 µM (active)	0.0129 µM (active)	0.022 µM (active)	< 0.01 µM (active)	< 0.01 µM (active)	0.0125 µM (active)	0.0132 µM (active)	< 0.01 µM (active)	–	< 0.01 µM (active)	0.0154 µM (active)	< 0.01 µM (active)	0.0285 µM (active)
CCOC(=O)c1csc(NC(=O)CCN2CCOCC2)n1	43.8 µM (inactive)	29.6 µM (inactive)	92.9 µM (inactive)	–	76.2 µM (inactive)	93.8 µM (inactive)	49.1 µM (inactive)	–	67.6 µM (inactive)	39.9 µM (inactive)	> 100 µM (inactive)	32 µM (inactive)	36.5 µM (inactive)	–	> 100 µM (inactive)	59.7 µM (inactive)	75.5 µM (inactive)	52.7 µM (inactive)	> 100 µM (inactive)	–
Oc1ccc(-c2nc3ccc(Cl)cc3s2)cc1	7.41 µM (inactive)	5.35 µM (inactive)	19.6 µM (inactive)	–	> 100 µM (inactive)	21.4 µM (inactive)	21.1 µM (inactive)	20 µM (inactive)	20.4 µM (inactive)	20.4 µM (inactive)	18.5 µM (inactive)	20.2 µM (inactive)	18.4 µM (inactive)	16.3 µM (inactive)	20.2 µM (inactive)	18.8 µM (inactive)	19.8 µM (inactive)	17.7 µM (inactive)	19.3 µM (inactive)	–
CC(C)C(C(=O)N(C)[C@H](C(=O)N1CCC[C@H]1C(=O)N(C)[C@@H](Cc1ccccc1)C(=O)OCc1ccccc1)C(C)C)N(C)C(=O)[C@@H](NC(=O)OC(C)(C)C)C(C)C (stereo partly drawn) (Boc-V[ξNMeV][NMeV]P[NMeF]-OBn)	–	11.2 µM (inactive)	9.33 µM (inactive)	> 43.3 µM (inactive)	85.1 µM (inactive)	23.9 µM (inactive)	> 31.6 µM (inactive)	> 63.5 µM (inactive)	–	29.2 µM (inactive)	–	> 31.6 µM (inactive)	14.2 µM (inactive)	> 10 µM (inactive)	> 31.6 µM (inactive)	–	24.6 µM (inactive)	11.4 µM (inactive)	19.8 µM (inactive)	–
c1ccc(/N=c2\snc3scc(-c4ccccc4)n23)cc1	–	43.8 µM (inactive)	32.5 µM (inactive)	50.5 µM (inactive)	33 µM (inactive)	34.4 µM (inactive)	39.4 µM (inactive)	26.7 µM (inactive)	–	66.2 µM (inactive)	–	49.5 µM (inactive)	50.5 µM (inactive)	36.5 µM (inactive)	39.2 µM (inactive)	–	46.2 µM (inactive)	31.5 µM (inactive)	37.5 µM (inactive)	–
C[Si](C)(C)CNC(=O)OCc1ccccc1	> 100 µM (inactive)	> 100 µM (inactive)	> 100 µM (inactive)	> 100 µM (inactive)	> 100 µM (inactive)	> 100 µM (inactive)	> 100 µM (inactive)	66.4 µM (inactive)	> 100 µM (inactive)	> 100 µM (inactive)	> 100 µM (inactive)	> 100 µM (inactive)	48 µM (inactive)	> 100 µM (inactive)	> 100 µM (inactive)	> 100 µM (inactive)	–	> 100 µM (inactive)	> 100 µM (inactive)	–
